Results reported in the NIST ThermoML archive (doi:10.1016/j.fluid.2006.09.024).

Columns and labels:
[1] = Liquid, Ebulliometric method (Recirculating still)
[2] = xn = mol fraction of the nth substance listed; conditions: 101 kPa, Liquid

C1C[C@@H]2[C@H]3CC[C@H](C3)[C@@H]2C1 [exo-tetrahydrodicyclopentadiene]
[1]
Conditions	vapor or sublimation pressure [kPa]
335.45 K	2
349.97 K	3.5
360.37 K	5
379.33 K	10
391.56 K	15
400.07 K	20
407.31 K	25
413.28 K	30
418.87 K	35
423.1 K	40
427.5 K	45
431.46 K	50
434.98 K	55
438.26 K	60
441.37 K	65
444.02 K	70
447.09 K	75
449.62 K	80
452.19 K	85
454.39 K	90
456.75 K	95
458.83 K	100
459.38 K	101.4

C1C[C@@H]2[C@@H]3CC[C@@H](C3)[C@@H]2C1 [endo-tetrahydrodicyclopentadiene]
[1]
Conditions	vapor or sublimation pressure [kPa]
344.02 K	2
358.17 K	3.5
367.23 K	5
384.68 K	10
396.77 K	15
405.51 K	20
412.5 K	25
418.51 K	30
423.84 K	35
428.42 K	40
432.64 K	45
436.48 K	50
440.06 K	55
443.43 K	60
446.4 K	65
451.93 K	75
454.45 K	80
456.82 K	85
458.86 K	90
460.9 K	95
462.76 K	100
463.6 K	101.6

C1C[C@@H]2[C@@H]3CC[C@@H](C3)[C@@H]2C1 [endo-tetrahydrodicyclopentadiene] + C1C[C@@H]2[C@H]3CC[C@H](C3)[C@@H]2C1
[2]
Conditions	kinematic viscosity, 288.15 K [m2/s]	kinematic viscosity, 298.15 K [m2/s]	kinematic viscosity, 308.15 K [m2/s]	kinematic viscosity, 318.15 K [m2/s]	mass density, 288.15 K [kg/m3]	mass density, 298.15 K [kg/m3]	mass density, 308.15 K [kg/m3]	mass density, 318.15 K [kg/m3]
x2 = 0.4028	6.06e-06	4.7e-06	3.67e-06	2.99e-06	954.39	946.44	938.48	930.47
x2 = 0.5145	5.23e-06	4.1e-06	3.23e-06	2.67e-06	951.54	943.63	935.68	927.69
x2 = 0.6017	4.62e-06	3.68e-06	2.96e-06	2.46e-06	949.22	941.29	933.37	925.41
x2 = 0.6956	4.18e-06	3.35e-06	2.72e-06	2.29e-06	946.72	938.85	930.9	923
x2 = 0.7966	3.86e-06	3.06e-06	2.49e-06	2.12e-06	944.23	936.36	928.49	920.59
x2 = 0.9069	3.47e-06	2.82e-06	2.31e-06	1.97e-06	941.57	933.78	925.9	918.06
x2 = 0.9933	3.18e-06	2.65e-06	2.22e-06	1.87e-06	939.58	931.79	923.99	916.14
